This note sets out measurements from patent publication US20250304952A1, “DNA ELEMENT RESPONSIVE TO EXTRACHROMOSOMAL DNA IN CANCER CELLS” (The Board of Trustees of the Leland Stanford Junior …, priority 2021, published 2025).

One test concerns ecDNA hubs in COLO320-DM. Nature of the test: ecDNA clustering by interphase DNA FISH, autocorrelation g(r). To be noted: 500 nM, 6 hours. The test is classed as cell-based, human. From the text: The Oligopaint FISH probe libraries were constructed as described previously 51 Each oligo consists of a 40 nucleotide (nt) homology to the hg19 genome assemble designed from the algorithm developed from the laboratory of Dr. Ting Wu (https://oligopaints.hms.harvard.edu/). Each library subpool consists of a unique sets of primer pairs for orthogonal PCR amplification and a 20 nt T7 promoter sequence for in vitro transcription and a 20 nt region for reverse transcription. Individual Oligopaint probes were generated by PCR amplification, in vitro transcription, and reverse transcription, in which ssDNA oligos conjugated with ATTO488 and ATTO647 fluorophores were introduced during the reverse transcription step. The Oligopaint covered genomic regions (hg19) used in this study are as follows: chr8: 116967673-118566852 (hg19_COLO_nonecDNA_1.5Mbp), chr8: 127435083-129017969 (hg19_COLO_ecDNA_1.5Mbp), chr8: 128729248-128831223 (hg19_PC3_ecDNA1_100 kb). A ssDNA oligo pool was ordered and synthesized from Twist Bioscience (San Francisco, CA). 15 mm #1.5 round glass coverslips (Electron Microscopy Sciences) were pre-rinsed with anhydrous ethanol for 5 min, air dried, and coated with L-poly lysine solution (100 μg/mL) for at least 2 hours. Fully dissociated ColoDM320 or PC3 cells were seeded onto the coverslips and recovered for at least 6 hours before experiments. Cells were fixed with 4% (v/v) methanol free paraformaldehyde diluted in 1×PBS at room temperature for 10 min. Then cells were washed 2× with 1×PBS and permeabilized in 0.5% Triton-X100 in 1×PBS for 30 min. After 2× wash in 1×PBS, cells were treated with 0.1M HCl for 5 min, followed by 3× washes with 2×SSC and 30 min incubation in 2×SSC+0.1% Tween20 (2×SSCT)+50% (v/v) formamide (EMD Millipore, cat #S4117). […]
To analyze the clustering of ecDNAs, we applied the autocorrelation function as described previously58 in Matlab (2019). g(r) estimates the probability of detecting another ecDNA signal at increasing distances from the viewpoint of an index ecDNA signal and is equal to 1 for a uniform, random distribution. Specifically, the pair auto-correlation function g(r^→) was calculated by the fast Fourier transform (FFT) method described by the equations below.
N(r^→) is the auto-correlation of a mask matrix that has the value of 1 inside the nucleus used for normalization. […] Autocorrelation functions were calculated first by converting the Cartesian coordinates to polar coordinates by Matlab cart2pol( ) function, binning by radius and by averaging within the assigned bins. […]

The test system of test [1] is MYC mRNA in COLO320-DM cells. Put plainly: MYC RNA measured by RT-qPCR in COLO320-DM. The test is classed as cell-based, human. The note with it: 500 nM, 6 hours. Here is the method: Cells were then treated for 6 hours with 500 nM JQ1 in DMSO unless otherwise indicated (Sigma-Aldrich SML1524) or an equivalent volume of DMSO.
RNA was extracted using RNeasy Plus mini Kit (QIAGEN 74136). Purified RNA was quantified by Nanodrop (Thermo Fisher). For RT-qPCR, 50 ng of RNA, 1× Brilliant II qRT-PCR mastermix with 1 μL RT/RNase block (Agilent 600825), and 200 nM forward and reverse primer were used. Each Ct value was measured using Lightcycler 480 (Roche) and each mean dCt was averaged from duplicate qRT-PCR reaction and performed in biological triplicate. Relative MYC RNA level (RT-qPCR primers MYC_exon3_fw and MYC_exon3_rv) was calculated by ddCt method compared to 18S and GAPDH controls (RT-qPCR primers GAPDH_fw, GAPDH_rv, 18S_fw, 18S_rv). P values were calculated using a Student's t-test by comparing the relative fold change of biological triplicates.
Approximately 0.6×10^6 COLO320-DM or COLO-320-HSR cells were plated in 6 well plates and cultured under standard conditions for 24 hours. Cells were then treated for 6 hours with one of the following: 500 nM JQ1 (Sigma-Aldrich SML1524), 500 nM MS645 (Sigma Aldrich SML2549), 1 μM THZ-1 (Selleck chemicals S7549), 20 μM SGC-SCP30 (Selleck chemicals S7256), 10 μM OICR-9429 (Selleck chemicals S7833), 50 μM MI-3 (Selleck chemicals S7619), 2 μM trichostatin A (Selleck chemicals S1045), or DMSO. […]

As to `Cc1sc2c(c1C)C(c1ccc(Cl)cc1)=N[C@@H](CC(=O)OC(C)(C)C)c1nnc(C)n1-2` [JQ1], the “ecDNA hub clustering (interphase DNA FISH, autocorrelation g(r))” value with ecDNA hubs in COLO320-DM is “dispersed ecDNA hubs”. Moreover, in test [1], the “MYC mRNA level” value is on record as “preferentially lowered”.
